# Test results taken from patent US20230085307A1, “PYRIDAZINONE COMPOUND AND HERBICIDE” (NISSAN CHEMICAL CORPORATION, priority 2019, published 2023).
# Tests used:
# late watergrass = experiment: Test Example 2: herbicidal activity, application during weed generation under submerged conditions (Table 17, symbol A); format: in vivo, late watergrass (Echinochloa oryzicola); settings: AAH 320 g/ha; application during weed generation, submerged conditions
# In short: (§1)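 In this pot test, flooded alluvial soil (water depth 4 cm) holds all three species sown as a mixture. Once seedlings have one to two leaves, the compound's emulsion, thinned with water to the intended dose, is poured on the water; grading follows after three weeks on the earlier criteria.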
# Japanese bulrush = experiment: Test Example 2: herbicidal activity, application during weed generation under submerged conditions (Table 17, symbol B); format: in vivo, Japanese bulrush (Schoenoplectus juncoides); settings: AAH 320 g/ha; application during weed generation, submerged conditions
# In short: as §1
# oval-leafed pondweed = experiment: Test Example 2: herbicidal activity, application during weed generation under submerged conditions (Table 17, symbol C); format: in vivo, oval-leafed pondweed (Monochoria vaginalis); settings: AAH 320 g/ha; application during weed generation, submerged conditions
# In short: as §1
# barnyard grass [1] = experiment: Test Example 3: herbicidal effect by foliage application, Wagner pot (Table 18, symbol H); format: in vivo, barnyard grass (Echinochloa crus-galli); settings: 320 g/ha
# In short: (§2)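 Plants were sown in alluvial soil held under 0.1–0.5 cm standing water and grown 14 days in a greenhouse at 25–30 °C. An emulsifiable formulation, water-diluted to the set dose, was then sprayed onto the foliage, and effects were scored three weeks later using previously defined criteria.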
# Chinese sprangletop = experiment: Test Example 3: herbicidal effect by foliage application, Wagner pot (Table 18, symbol D); format: in vivo, chinese sprangletop (Leptochloa chinensis); settings: 320 g/ha
# In short: as §2
# rice flat sedge = experiment: Test Example 3: herbicidal effect by foliage application, Wagner pot (Table 18, symbol E); format: in vivo, rice flat sedge (Cyperus iria); settings: 320 g/ha
# In short: as §2
# southern crabgrass [2] = experiment: Test Example 4: herbicidal effect by soil treatment (Table 19, symbol F); format: in vivo, southern crabgrass (Digitaria ciliaris)
# In short: (§3)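 Herbicidal effect was rated 3 weeks after treatment, using the scoring criteria of an earlier test. The compound, formulated as an emulsion and diluted in water to a set herbicide amount, had been sprayed uniformly on soil over freshly sown seeds. Growth took place in a greenhouse at 25° C. to 30° C.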
# green foxtail [3] = experiment: Test Example 4: herbicidal effect by soil treatment (Table 19, symbol G); format: in vivo, green foxtail (Setaria viridis)
# In short: as §3
# barnyard grass [4] = experiment: Test Example 4: herbicidal effect by soil treatment (Table 19, symbol H); format: in vivo, barnyard grass (Echinochloa crus-galli)
# In short: as §3
# wild oat [5] = experiment: Test Example 4: herbicidal effect by soil treatment (Table 19, symbol I); format: in vivo, wild oat (Avena fatua)
# In short: as §3
# blackgrass [6] = experiment: Test Example 4: herbicidal effect by soil treatment (Table 19, symbol J); format: in vivo, blackgrass (Alopecurus myosuroides)
# In short: as §3
# Italian ryegrass [7] = experiment: Test Example 4: herbicidal effect by soil treatment (Table 19, symbol K); format: in vivo, Italian ryegrass (Lolium multiflorum)
# In short: as §3
# windgrass [8] = experiment: Test Example 4: herbicidal effect by soil treatment (Table 19, symbol L); format: in vivo, windgrass (Apera spica-venti)
# In short: as §3
# velvetleaf [9] = experiment: Test Example 4: herbicidal effect by soil treatment (Table 19, symbol M); format: in vivo, velvetleaf (Abutilon theophrasti)
# In short: as §3
# redroot pigweed [10] = experiment: Test Example 4: herbicidal effect by soil treatment (Table 19, symbol N); format: in vivo, redroot pigweed (Amaranthus retroflexus)
# In short: as §3
# lambsquarters [11] = experiment: Test Example 4: herbicidal effect by soil treatment (Table 19, symbol O); format: in vivo, lambsquarters (Chenopodium album)
# In short: as §3
# chickweed [12] = experiment: Test Example 4: herbicidal effect by soil treatment (Table 19, symbol P); format: in vivo, common chickweed (Stellaria media)
# In short: as §3
# persian speedwell [13] = experiment: Test Example 4: herbicidal effect by soil treatment (Table 19, symbol R); format: in vivo, Persian speedwell (Veronica persica)
# In short: as §3
# southern crabgrass [14] = experiment: Test Example 5: herbicidal effect by foliage application, plastic box (Table 20, symbol F); format: in vivo, southern crabgrass (Digitaria ciliaris); settings: foliage application
# In short: (§4)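 Foliar spray test: emulsion formulation diluted in water to a set application rate, sprayed onto 14-day-old plants raised in diluvial soil at 25° C to 30° C under glass. Both herbicidal effect and crop effect rated visually three weeks later.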
# green foxtail [15] = experiment: Test Example 5: herbicidal effect by foliage application, plastic box (Table 20, symbol G); format: in vivo, green foxtail (Setaria viridis); settings: foliage application
# In short: as §4
# barnyard grass [16] = experiment: Test Example 5: herbicidal effect by foliage application, plastic box (Table 20, symbol H); format: in vivo, barnyard grass (Echinochloa crus-galli); settings: foliage application
# In short: as §4
# wild oat [17] = experiment: Test Example 5: herbicidal effect by foliage application, plastic box (Table 20, symbol I); format: in vivo, wild oat (Avena fatua); settings: foliage application
# In short: as §4
# blackgrass [18] = experiment: Test Example 5: herbicidal effect by foliage application, plastic box (Table 20, symbol J); format: in vivo, blackgrass (Alopecurus myosuroides); settings: foliage application
# In short: as §4
# Italian ryegrass [19] = experiment: Test Example 5: herbicidal effect by foliage application, plastic box (Table 20, symbol K); format: in vivo, Italian ryegrass (Lolium multiflorum); settings: foliage application
# In short: as §4
# windgrass [20] = experiment: Test Example 5: herbicidal effect by foliage application, plastic box (Table 20, symbol L); format: in vivo, windgrass (Apera spica-venti); settings: foliage application
# In short: as §4
# velvetleaf [21] = experiment: Test Example 5: herbicidal effect by foliage application, plastic box (Table 20, symbol M); format: in vivo, velvetleaf (Abutilon theophrasti); settings: foliage application
# In short: as §4
# redroot pigweed [22] = experiment: Test Example 5: herbicidal effect by foliage application, plastic box (Table 20, symbol N); format: in vivo, redroot pigweed (Amaranthus retroflexus); settings: foliage application
# In short: as §4
# lambsquarters [23] = experiment: Test Example 5: herbicidal effect by foliage application, plastic box (Table 20, symbol O); format: in vivo, lambsquarters (Chenopodium album); settings: foliage application
# In short: as §4
# chickweed [24] = experiment: Test Example 5: herbicidal effect by foliage application, plastic box (Table 20, symbol P); format: in vivo, common chickweed (Stellaria media); settings: foliage application
# In short: as §4
# persian speedwell [25] = experiment: Test Example 5: herbicidal effect by foliage application, plastic box (Table 20, symbol R); format: in vivo, Persian speedwell (Veronica persica); settings: foliage application
# In short: as §4
# [26] = AAH 320 g/ha, three weeks after application
# [27] = 320 g/ha, evaluated three weeks after application
structure (smiles),measurement,setting,value
Cc1nn(C)c(=O)c(-c2c(-c3ccc(OCc4cnc(Cl)s4)cc3)sc3ccccc23)c1O [1-144],"herbicidal effect rating, A: late watergrass",late watergrass,2 (Herbicidal rate of 20% or more and less than 40%)
same,"herbicidal effect rating, B: Japanese bulrush",Japanese bulrush,0 (Herbicidal rate of 5% or less (almost no effect))
same,"herbicidal effect rating, C: oval-leafed pondweed",oval-leafed pondweed,0 (Herbicidal rate of 5% or less (almost no effect))
same,"herbicidal effect on H (barnyard grass), rating 0-5",barnyard grass [1],5 (Herbicidal rate of 90% or more (almost completely withered))
same,"herbicidal effect on D (Chinese sprangletop), rating 0-5",Chinese sprangletop,3 (Herbicidal rate of 40% or more and less than 70%)
same,"herbicidal effect on E (rice flat sedge), rating 0-5",rice flat sedge,5 (Herbicidal rate of 90% or more (almost completely withered))
same,"F: southern crabgrass, herbicidal effect rating",southern crabgrass [2]; AAH 320 g/ha,0 (Herbicidal rate of 5% or less (almost no effect))
same,"G: green foxtail, herbicidal effect rating",green foxtail [3]; AAH 320 g/ha,0 (Herbicidal rate of 5% or less (almost no effect))
same,"H: barnyard grass, herbicidal effect rating",barnyard grass [4]; AAH 320 g/ha,0 (Herbicidal rate of 5% or less (almost no effect))
same,"I: wild oat, herbicidal effect rating",wild oat [5]; AAH 320 g/ha,0 (Herbicidal rate of 5% or less (almost no effect))
same,"J: blackgrass, herbicidal effect rating",blackgrass [6]; AAH 320 g/ha,1 (Herbicidal rate of 5% or more and less than 20%)
same,"K: Italian ryegrass, herbicidal effect rating",Italian ryegrass [7]; AAH 320 g/ha,3 (Herbicidal rate of 40% or more and less than 70%)
same,"L: windgrass, herbicidal effect rating",windgrass [8]; AAH 320 g/ha,0 (Herbicidal rate of 5% or less (almost no effect))
same,"M: velvetleaf, herbicidal effect rating",velvetleaf [9]; AAH 320 g/ha,0 (Herbicidal rate of 5% or less (almost no effect))
same,"N: redroot pigweed, herbicidal effect rating",redroot pigweed [10]; AAH 320 g/ha,0 (Herbicidal rate of 5% or less (almost no effect))
same,"O: lambsquarters, herbicidal effect rating",lambsquarters [11]; AAH 320 g/ha,0 (Herbicidal rate of 5% or less (almost no effect))
same,"P: chickweed, herbicidal effect rating",chickweed [12]; AAH 320 g/ha,3 (Herbicidal rate of 40% or more and less than 70%)
same,"R: persian speedwell, herbicidal effect rating",persian speedwell [13]; AAH 320 g/ha,3 (Herbicidal rate of 40% or more and less than 70%)
same,"F: southern crabgrass, herbicidal effect",southern crabgrass [14]; [26],5 (Herbicidal rate of 90% or more (almost completely withered))
same,"G: green foxtail, herbicidal effect",green foxtail [15]; [26],4 (Herbicidal rate of 70% or more and less than 90%)
same,"H: barnyard grass, herbicidal effect",barnyard grass [16]; [26],5 (Herbicidal rate of 90% or more (almost completely withered))
same,"I: wild oat, herbicidal effect",wild oat [17]; [26],0 (Herbicidal rate of 5% or less (almost no effect))
same,"J: blackgrass, herbicidal effect",blackgrass [18]; [26],5 (Herbicidal rate of 90% or more (almost completely withered))
same,"K: Italian ryegrass, herbicidal effect",Italian ryegrass [19]; [26],4 (Herbicidal rate of 70% or more and less than 90%)
same,"L: windgrass, herbicidal effect",windgrass [20]; [26],5 (Herbicidal rate of 90% or more (almost completely withered))
same,"M: velvetleaf, herbicidal effect",velvetleaf [21]; [26],2 (Herbicidal rate of 20% or more and less than 40%)
same,"N: redroot pigweed, herbicidal effect",redroot pigweed [22]; [26],3 (Herbicidal rate of 40% or more and less than 70%)
same,"O: lambsquarters, herbicidal effect",lambsquarters [23]; [26],1 (Herbicidal rate of 5% or more and less than 20%)
same,"P: chickweed, herbicidal effect",chickweed [24]; [26],5 (Herbicidal rate of 90% or more (almost completely withered))
same,"R: persian speedwell, herbicidal effect",persian speedwell [25]; [26],5 (Herbicidal rate of 90% or more (almost completely withered))
CC(=O)COc1ccc(-c2sc3ccc(F)cc3c2-c2c(O)c(C)nn(C)c2=O)cc1 [2-068],"herbicidal effect rating, A: late watergrass",late watergrass,2 (Herbicidal rate of 20% or more and less than 40%)
same,"herbicidal effect rating, B: Japanese bulrush",Japanese bulrush,3 (Herbicidal rate of 40% or more and less than 70%)
same,"herbicidal effect rating, C: oval-leafed pondweed",oval-leafed pondweed,3 (Herbicidal rate of 40% or more and less than 70%)
same,"herbicidal effect on H (barnyard grass), rating 0-5",barnyard grass [1],5 (Herbicidal rate of 90% or more (almost completely withered))
same,"herbicidal effect on D (Chinese sprangletop), rating 0-5",Chinese sprangletop,4 (Herbicidal rate of 70% or more and less than 90%)
same,"herbicidal effect on E (rice flat sedge), rating 0-5",rice flat sedge,5 (Herbicidal rate of 90% or more (almost completely withered))
same,"herbicidal effect rating, F: southern crabgrass",southern crabgrass [2]; 320 g/ha,1 (Herbicidal rate of 5% or more and less than 20%)
same,"herbicidal effect rating, G: green foxtail",green foxtail [3]; 320 g/ha,4 (Herbicidal rate of 70% or more and less than 90%)
same,"herbicidal effect rating, H: barnyard grass",barnyard grass [4]; 320 g/ha,3 (Herbicidal rate of 40% or more and less than 70%)
same,"herbicidal effect rating, I: wild oat",wild oat [5]; 320 g/ha,0 (Herbicidal rate of 5% or less (almost no effect))
same,"herbicidal effect rating, J: blackgrass",blackgrass [6]; 320 g/ha,0 (Herbicidal rate of 5% or less (almost no effect))
same,"herbicidal effect rating, K: Italian ryegrass",Italian ryegrass [7]; 320 g/ha,0 (Herbicidal rate of 5% or less (almost no effect))
same,"herbicidal effect rating, L: windgrass",windgrass [8]; 320 g/ha,0 (Herbicidal rate of 5% or less (almost no effect))
same,"herbicidal effect rating, M: velvetleaf",velvetleaf [9]; 320 g/ha,5 (Herbicidal rate of 90% or more (almost completely withered))
same,"herbicidal effect rating, N: redroot pigweed",redroot pigweed [10]; 320 g/ha,5 (Herbicidal rate of 90% or more (almost completely withered))
same,"herbicidal effect rating, O: lambsquarters",lambsquarters [11]; 320 g/ha,4 (Herbicidal rate of 70% or more and less than 90%)
same,"herbicidal effect rating, P: chickweed",chickweed [12]; 320 g/ha,0 (Herbicidal rate of 5% or less (almost no effect))
same,"herbicidal effect rating, R: persian speedwell",persian speedwell [13]; 320 g/ha,4 (Herbicidal rate of 70% or more and less than 90%)
same,herbicidal effect on F: southern crabgrass,southern crabgrass [14]; [27],5 (Herbicidal rate of 90% or more (almost completely withered))
same,herbicidal effect on G: green foxtail,green foxtail [15]; [27],5 (Herbicidal rate of 90% or more (almost completely withered))
same,herbicidal effect on H: barnyard grass,barnyard grass [16]; [27],5 (Herbicidal rate of 90% or more (almost completely withered))
same,herbicidal effect on I: wild oat,wild oat [17]; [27],4 (Herbicidal rate of 70% or more and less than 90%)
same,herbicidal effect on J: blackgrass,blackgrass [18]; [27],4 (Herbicidal rate of 70% or more and less than 90%)
same,herbicidal effect on K: Italian ryegrass,Italian ryegrass [19]; [27],3 (Herbicidal rate of 40% or more and less than 70%)
same,herbicidal effect on L: windgrass,windgrass [20]; [27],5 (Herbicidal rate of 90% or more (almost completely withered))
same,herbicidal effect on M: velvetleaf,velvetleaf [21]; [27],5 (Herbicidal rate of 90% or more (almost completely withered))
same,herbicidal effect on N: redroot pigweed,redroot pigweed [22]; [27],5 (Herbicidal rate of 90% or more (almost completely withered))
same,herbicidal effect on O: lambsquarters,lambsquarters [23]; [27],5 (Herbicidal rate of 90% or more (almost completely withered))
same,herbicidal effect on P: chickweed,chickweed [24]; [27],5 (Herbicidal rate of 90% or more (almost completely withered))
same,herbicidal effect on R: persian speedwell,persian speedwell [25]; [27],5 (Herbicidal rate of 90% or more (almost completely withered))
